Measured values: paper PMC5974403, “The novel histone de acetylase 6 inhibitor, MPT0G211, ameliorates tau phosphorylation and cognitive deficits in an Alzheimer’s disease model” (Cell Death & Disease, 2018)

Columns and labels:
Neuro-2a cells = assay: Immunoprecipitation/immunoblot of HDAC6, acetyl-lysine, ubiquitin in transfected Neuro-2a cells; assay type: cell-based, mouse; conditions: Neuro-2a transfected, 24 h
Protocol: Fig. 4 MPT0G211 increased the ubiquitination of p-tau and degradation by proteasome. a, b SH-SY5Y and Neuro-2a cells were transfected for 24 h with pCAX APP 695 and pRK5-EGFP-Tau P301L and incubated with MPT0G211 or ACY-1215 (0.1 μM) for another 24 h, after which the cell lysates were immunoprecipitated with antibodies against HDAC6, acetyl-lysine (a) or ubiquitin (b) and were subjected to immunoblotting. c Cells were transfected with pCAX APP 695 and pRK5-EGFP-Tau P301L for 24 h and were then incubated with MPT0G211 (0.01–1 μM) for another 24 h. Immunoblots reveal polyubiquitin complexes. d pCAX APP 695 or pRK5-EGFP-Tau P301L were used to transfect the cells for 24 h, incubated with or without MG132 (1 μM) for 30 min, and were then treated with MPT0G211 or ACY-1215 (0.1 μM) for another 24 h. Cell lysates were prepared for western blot analysis of the indicated proteins
Cells (1 × 10^6) were incubated for 10 min at 4 °C in lysis buffer (20 mM HEPES, pH 7.4, 2 mM EGTA, 50 mM β-glycerophosphate, 0.1% Triton X-100, 10% glycerol, 1 mM dithiothreitol, 1 μg/mL leupeptin, 5 μg/mL aprotinin, 1 mM phenylmethylsulfonyl fluoride, and 1 mM sodium orthovanadate), scraped from the plate, incubated on ice for 10 min, and centrifuged at 17,000 × g for 30 min at 4 °C. Protein samples (30 μg) were electrophoresed through sodium dodecyl sulfate-polyacrylamide gels (SDS-PAGE) and transferred onto a nitrocellulose membrane, which was then blocked by incubation for 30 min at room temperature with 5% fat-free milk in PBS. Immunoblotting was performed by overnight incubation at 4 °C with primary antibodies in PBS, followed by incubation for 1 h at room temperature with HRP-conjugated secondary antibodies. Bound antibodies were measured using ECL reagent (T-Pro Biotechnology, New Taipei City, Taiwan), and the membrane was placed on a photographic film. Cell lysates (30 μg) were incubated with antibodies (1 μg each) and protein A/G agarose beads overnight at 4 °C. The precipitated beads were washed three times with 1 mL of ice-cold cell lysis buffer, and bound immune complexes were separated using 8% SDS-PAGE, followed by immunoblotting using the indicated primary antibody.

3×Tg-AD mice = assay: Morris water maze in 3×Tg-AD mice; assay type: in vivo, mouse; conditions: 50 mg/kg oral daily for 3 months
Protocol: Red arrowheads indicate phosphorylated-tau proteins. Scale bar = 25 μm. Data represent the mean ± SEM. *p < 0.05, **p < 0.01, and ***p < 0.001 compared with the basal or control group; ^#p < 0.05, ^##p < 0.01, and ^###p < 0.001 compared with the vehicle-treated group
Six-month-old female B6;129-Psen1^tm1Mpm Tg(APPSwe,tauP301L)1Lfa/Mmjax (3xTg-AD) mice and control B6129SF2/J mice were obtained from the Jackson Laboratory (Bar Harbor, ME, USA), orally administered MPT0G211 (50 mg/kg) or memantine (30 mg/kg, dissolved in water) once daily for 3 months, and then subjected to Morris water maze. The assay that using 3xTg-AD mice was entrusted to carry out by Development Center for Biotechnology (New Taipei City, Taiwan).
The water maze was constructed as a white circular pool filled with water, and the water temperature was maintained at 23–27 °C. A white platform was established and submerged 5 cm below the surface of the water and styrofoam beads were added to make the platform invisible. Animals were trained by permitting them to stay for 10 s upon reaching the platform. […] Training was performed twice daily and 4 days during 1 week. Test trials were repeated twice with a 20 min interval for each animal. Scopolamine (1 mg/kg) was injected intraperitoneally 90 min before the test trial to induce AD-like features, except for the control group.

SH-SY5Y cells [1] = assay: Flow cytometry of sub-G1 (PI) and annexin V/PI in transfected SH-SY5Y cells; assay type: cell-based, human; conditions: 0.1 μM, 24 h
Protocol: (§1) The fractionation scheme used to separate different cellular pools of tau, and the western blot analysis of the effects of the compounds on tau pools generated using the fractionation scheme are presented. b, d SH-SY5Y cells were transfected for 24 h with pCAX APP 695 and pRK5-EGFP-Tau P301L, incubated with or without MPT0G211 or ACY-1215 (0.1 μM) for another 24 h, and then the cells were fixed and stained by propidium iodide (b) or annexin V/PI double staining (d) and analyzed by flow cytometry. c, e Percentages of the subG1 phase (c) or annexin V-positive cells (e) in response to drug treatment as explained in (b). Results are presented as the mean ± SEM. *p < 0.05 and **p < 0.01 compared with the control group; ^#p < 0.05 and ^##p < 0.01 compared with the indicated groups TEXT PRINTED IN THE PICTURE: (B) MPT0G211: hAPP + hTauP301L: SubG1 10.91% | (B) ACY-1215: hAPP + hTauP301L: SubG1 15.40% | (D) MPT0G211: hAPP + hTauP301L: 9.56%; hAPP + hTauP301L: 11.26% | (D) ACY-1215: hAPP + hTauP301L: 9.28%; hAPP + hTauP301L: 11.25%
After drug treatment, the cells were collected, washed with cold phosphate-buffered saline (PBS), and fixed with 75% alcohol overnight at −20 °C. After centrifugation, the fixed cells were washed with cold PBS and resuspended in DNA extraction buffer (0.2 M Na2HPO4, 0.1 M citric acid, pH 7.8) for 30 min. The cells were centrifuged and incubated with propidium iodide (PI) (0.1% Triton X-100, 100 μg/mL RNase A, and 80 μg/mL PI in PBS) for 30 min. The cell cycle was analyzed using a FACScan Flow cytometer and Cell Quest software (Becton Dickinson, Mountain View, CA, USA).

SH-SY5Y cells [2] = assay: Subcellular fractionation of tau pools (tau aggregation) in transfected SH-SY5Y cells; assay type: cell-based, human; conditions: SH-SY5Y transfected hAPP 695 + hTau P301L, 0.1 μM, 24 h
Protocol: as §1
This assay followed a published method. Briefly, cells (1 × 10^7) were treated with drugs for 24 h and scraped off into breaking buffer (0.25 M sucrose, 10 mM HEPES, pH 7.2, 1 mM MgAc2, and protease inhibitors). […] Samples containing equal amounts of protein were analyzed using SDS-PAGE.

[3] = hAPP + hTauP301L transfected SH-SY5Y, Fig. 3d picture, quadrant not identified

Structure (SMILES): O=C(NO)c1ccc(CNc2cccc3cccnc23)cc1 [MPT0G211, N-hydroxy-4-((quinolin-8-ylamino)methyl)benzamide]
- coimmunoprecipitation of ubiquitin with p-tau (Ser396) (Neuro-2a cells; 0.1 μM): clearly increased
- HDAC6/Hsp90 binding (Neuro-2a cells; 0.1 μM, IP): downregulation
- acetylation of Hsp90 (Neuro-2a cells; 0.1 μM, IP): clearly enhanced
- level of polyubiquitinated proteins (Neuro-2a cells; 0.01–1 μM): significantly accumulated
- memory impairment (Morris water maze escape latency) (3×Tg-AD mice): significantly ameliorated
- SubG1 population (SH-SY5Y cells [1]; hAPP + hTauP301L transfected SH-SY5Y, PI staining, Fig. 3b picture): 10.91%
- annexin V/PI double staining, quadrant percentage (SH-SY5Y cells [1]; [3]): 11.26%
- annexin V/PI double staining, quadrant percentage (first value) (SH-SY5Y cells [1]; [3]): 9.56%
- plasmid transfection-induced sub-G1 population and annexin V-positive apoptotic cells increase (SH-SY5Y cells [1]; transfected neuronal cells): significantly inhibited
- levels of aggregated tau (SH-SY5Y cells [2]): significantly reduced
